Experimental data from patent publication US12660819B2, “Herbicidal derivatives” (SYNGENTA CROP PROTECTION AG, priority 2020, dated 2026).

Key:
Assay type in all cases: in vivo
[1] = system: Amaranthus retoflexus (AMARE); test: Pre-emergence Test (glasshouse, percentage damage to the plant); details: 1000 g/ha unless otherwise stated, five-point scale
[2] = system: Setaria faberi (SETFA); test: as above; details: 1000 g/ha unless otherwise stated, five-point scale
[3] = system: Echinochloa crus-galli (ECHCG); test: Post-emergence Test (glasshouse, percentage damage to the plant); details: post-emergence spray, 1000 g/ha unless otherwise stated, evaluated after 13 days
Summary of the method: (§1)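 Seeds are sown in standard soil under controlled glasshouse conditions. The pots are then sprayed at 1000 g/ha, unless otherwise stated, with compound in acetone/water (50:50) containing 0.5% Tween 20. After 13 days further growth, percentage plant damage is scored from 1 (0-20%) to 5 (81-100%).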

[4] = system: Zea mays (ZEAMX); test: as above; details: post-emergence spray, 1000 g/ha unless otherwise stated, evaluated after 13 days
Summary of the method: (§2)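 Compound formulated in 50:50 acetone/water with 0.5% Tween 20 was diluted to an aqueous spray and applied at 1000 g/ha, unless otherwise stated, onto sown pots. Evaluation after 13 days gave percentage damage, banded into a 1–5 score.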

[5] = system: Abutilon theophrasti (ABUTH); test: as above; details: post-emergence spray, 1000 g/ha unless otherwise stated, evaluated after 13 days
Summary of the method: as §1

[6] = system: Amaranthus retoflexus (AMARE); test: as above; details: post-emergence spray, 1000 g/ha unless otherwise stated, evaluated after 13 days
Summary of the method: as §1

[7] = system: Ipomoea hederacea (IPOHE); test: as above; details: post-emergence spray, 1000 g/ha unless otherwise stated, evaluated after 13 days
Summary of the method: as §2

[8] = system: Setaria faberi (SETFA); test: as above; details: post-emergence spray, 1000 g/ha unless otherwise stated, evaluated after 13 days
Summary of the method: as §2

[9] = system: Echinochloa crus-galli (ECHCG); test: Pre-emergence Test (glasshouse, percentage damage to the plant); details: 1000 g/ha unless otherwise stated, five-point scale
[10] = system: Zea mays (ZEAMX); test: as above; details: 1000 g/ha unless otherwise stated, five-point scale
[11] = system: Ipomoea hederacea (IPOHE); test: as above; details: 1000 g/ha unless otherwise stated, five-point scale
[12] = system: Abutilon theophrasti (ABUTH); test: as above; details: 1000 g/ha unless otherwise stated, five-point scale

| Structure (SMILES) | percentage damage to the plant, AMARE [1] | percentage damage to the plant, SETFA [2] | Post-emergence Test ECHCG, percentage damage to the plant (five-point scale) [3] | Post-emergence Test ZEAMX, percentage damage to the plant (five-point scale) [4] | Post-emergence Test ABUTH, percentage damage to the plant (five-point scale) [5] | Post-emergence Test AMARE, percentage damage to the plant (five-point scale) [6] | Post-emergence Test IPOHE, percentage damage to the plant (five-point scale) [7] | Post-emergence Test SETFA, percentage damage to the plant (five-point scale) [8] | percentage damage to the plant, ECHCG [9] | percentage damage to the plant, ZEAMX [10] | percentage damage to the plant, IPOHE [11] | percentage damage to the plant, ABUTH [12] |
| --- | --- | --- | --- | --- | --- | --- | --- | --- | --- | --- | --- | --- |
| CCn1c(C)c(-c2ccc(C(F)(F)F)cc2)c(=O)c(C(=O)O)c1-c1ccc(Cl)c(Cl)n1 [Compound 151, 2-(5,6-dichloro-2-pyridyl)-1-ethyl-6-methyl-4-oxo-5-[4-(trifluoromethyl)phenyl] pyridine-3-carboxylic acid] | 1 (1=0-20%) | 4 (4=61-80%) | 3 (3=41-60%) | 2 (2=21-40%) | 3 (3=41-60%) | 0 | 3 (3=41-60%) | 4 (4=61-80%) | 4 (4=61-80%) | 2 (2=21-40%) | 5 (5=81-100%) | 1 (1=0-20%) |
| CCn1c(C)c(-c2cc(Cl)cc(Cl)c2)c(=O)c(C(=O)O)c1-c1ccc(Cl)c(Cl)c1 [Compound 56, 2-(3,4-dichlorophenyl)-5-(3,5-dichlorophenyl)-1-ethyl-6-methyl-4-oxo-pyridine-3-carboxylic acid] | 1 (1=0-20%) | 1 (1=0-20%) | 1 (1=0-20%) | 1 (1=0-20%) | 1 (1=0-20%) | 1 (1=0-20%) | 1 (1=0-20%) | 1 (1=0-20%) | 1 (1=0-20%) | 1 (1=0-20%) | 1 (1=0-20%) | 1 (1=0-20%) |
| CCn1c(C)c(-c2cc(F)cc(C#N)c2)c(=O)c(C(=O)O)c1-c1ccc(Cl)c(Cl)c1 [Compound 78, 5-(3-cyano-5-fluoro-phenyl)-2-(3,4-dichlorophenyl)-1-ethyl-6-methyl-4-oxo-pyridine-3-carboxylic acid] | 2 (2=21-40%) | 4 (4=61-80%) | 2 (2=21-40%) | 1 (1=0-20%) | 2 (2=21-40%) | 1 (1=0-20%) | 1 (1=0-20%) | 3 (3=41-60%) | 3 (3=41-60%) | 1 (1=0-20%) | 2 (2=21-40%) | 1 (1=0-20%) |
| CCn1c(C)c(-c2cc(C)cc(C(F)(F)F)c2)c(=O)c(C(=O)O)c1-c1ccc(Cl)c(Cl)c1 [Compound 67, 2-(3,4-dichlorophenyl)-1-ethyl-6-methyl-5-[3-methyl-5-(trifluoromethyl)phenyl]-4-oxo-pyridine-3-carboxylic acid] | 1 (1=0-20%) | 1 (1=0-20%) | 1 (1=0-20%) | 1 (1=0-20%) | 2 (2=21-40%) | 1 (1=0-20%) | 1 (1=0-20%) | 1 (1=0-20%) | 1 (1=0-20%) | 1 (1=0-20%) | 1 (1=0-20%) | 1 (1=0-20%) |
| CCn1c(-c2ccc(Cl)c(Cl)c2)c(C(=O)O)c(=O)c(-c2ccc(Cl)cc2)c1C(F)(F)F [Compound 132, 5-(4-chlorophenyl)-2-(3,4-dichlorophenyl)-1-ethyl-4-oxo-6-(trifluoromethyl) pyridine-3-carboxylic acid] | 5 (5=81-100%) | 0 | 0 | 1 (1=0-20%) | 3 (3=41-60%) | 5 (5=81-100%) | 4 (4=61-80%) | 0 | 0 | 0 | 2 (2=21-40%) | 4 (4=61-80%) |
| CCn1c(C)c(-c2cc(F)cc(OCC(F)(F)F)c2)c(=O)c(C(=O)O)c1-c1ccc(Cl)c(Cl)c1 [Compound 94, 2-(3,4-dichlorophenyl)-1-ethyl-5-[3-fluoro-5-(2,2,2-trifluoroethoxy)phenyl]-6-methyl-4-oxo-pyridine-3-carboxylic acid] | 1 (1=0-20%) | 1 (1=0-20%) | 1 (1=0-20%) | 1 (1=0-20%) | 1 (1=0-20%) | 1 (1=0-20%) | 1 (1=0-20%) | 1 (1=0-20%) | 1 (1=0-20%) | 1 (1=0-20%) | 1 (1=0-20%) | 1 (1=0-20%) |
| CCn1c(C)c(-c2cccc(Cl)c2)c(=O)c(C(=O)O)c1-c1ccnc(Cl)c1 [Compound 144, 5-(3-chlorophenyl)-2-(2-chloro-4-pyridyl)-1-ethyl-6-methyl-4-oxo-pyridine-3-carboxylic acid] | 1 (1=0-20%) | 4 (4=61-80%) | 2 (2=21-40%) | 2 (2=21-40%) | 2 (2=21-40%) | 2 (2=21-40%) | 2 (2=21-40%) | 3 (3=41-60%) | 4 (4=61-80%) | 2 (2=21-40%) | 2 (2=21-40%) | 1 (1=0-20%) |
| CCn1c(C)c(-c2cc(F)cc(F)c2)c(=O)c(C(=O)O)c1-c1ccc(Cl)c(Cl)c1 [Compound 79, 2-(3,4-dichlorophenyl)-5-(3,5-difluorophenyl)-1-ethyl-6-methyl-4-oxo-pyridine-3-carboxylic acid] | 3 (3=41-60%) | 5 (5=81-100%) | 1 (1=0-20%) | 1 (1=0-20%) | 2 (2=21-40%) | 1 (1=0-20%) | 2 (2=21-40%) | 2 (2=21-40%) | 1 (1=0-20%) | 2 (2=21-40%) | 2 (2=21-40%) | 3 (3=41-60%) |
| CCn1c(C)c(-c2cccc(OCC(F)(F)F)c2)c(=O)c(C(=O)O)c1-c1ccc(Cl)c(Cl)c1 [Compound 110, 2-(3,4-dichlorophenyl)-1-ethyl-6-methyl-4-oxo-5-[3-(2,2,2-trifluoroethoxy)phenyl] pyridine-3-carboxylic acid] | 1 (1=0-20%) | 1 (1=0-20%) | 1 (1=0-20%) | 1 (1=0-20%) | 1 (1=0-20%) | 1 (1=0-20%) | 1 (1=0-20%) | 1 (1=0-20%) | 1 (1=0-20%) | 1 (1=0-20%) | 1 (1=0-20%) | 1 (1=0-20%) |
